In PubChem BioAssay AID330 (DTP/NCI, 2004):
Values joined by “and” are separate entries in the source; they are usually repeats but may differ in a detail not shown here. Identical values can stand only once. Toxic doses and inconclusive results are not listed. Square brackets hold non-standard residues; d marks the D form. Peptide text beside a SMILES is read from it. ξ: configuration not given here. ξD = NC(CC(=O)O)C(=O)O

Test system: P388 leukemia ip, CD2F1 mice, survival T/C
Test: NCI In Vivo Anticancer Drug Screen. Data for tumor model P388 Leukemia (intraperitoneal) in CD2F1 (CDF1) mice
Conditions: endpoint: median survival time, higher = longer survival
Outline: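 Mice carrying the transplanted tumor received test compound or vehicle. Survival was recorded in each group, and the value is the treated-group measurement divided by that of the vehicle-treated control group.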

[1] = dose: 50.0 mg/kg/injection, schedule: Q01DX005 (ip), vehicle: Klucel (hydroxypropylcellulose) (HPC)
[2] = dose: 100.0 mg/kg/injection, schedule: Q01DX005 (ip), vehicle: Klucel (hydroxypropylcellulose) (HPC)
[3] = dose: 200.0 mg/kg/injection, schedule: Q01DX005 (ip), vehicle: Klucel (hydroxypropylcellulose) (HPC)
[4] = dose: 50.0 mg/kg/injection, schedule: Q01DX009 (ip), vehicle: Klucel (hydroxypropylcellulose) (HPC)
[5] = dose: 100.0 mg/kg/injection, schedule: Q01DX009 (ip), vehicle: Klucel (hydroxypropylcellulose) (HPC)
[6] = dose: 200.0 mg/kg/injection, schedule: Q01DX009 (ip), vehicle: Klucel (hydroxypropylcellulose) (HPC)
[7] = dose: 25.0 mg/kg/injection, schedule: Q01DX005 (ip), vehicle: Klucel (hydroxypropylcellulose) (HPC)
[8] = dose: 25.0 mg/kg/injection, schedule: Q01DX009 (ip), vehicle: saline with Tween-80
[9] = dose: 50.0 mg/kg/injection, schedule: Q01DX009 (ip), vehicle: saline with Tween-80
[10] = dose: 100.0 mg/kg/injection, schedule: Q01DX009 (ip), vehicle: saline with Tween-80
[11] = dose: 50.0 mg/kg/injection, schedule: Q01DX005 (ip), vehicle: saline with Tween-80
[12] = dose: 100.0 mg/kg/injection, schedule: Q01DX005 (ip), vehicle: saline with Tween-80
[13] = dose: 200.0 mg/kg/injection, schedule: Q01DX005 (ip), vehicle: saline with Tween-80
[14] = dose: 100.0 mg/kg/injection, schedule: Q04DX003 (ip), vehicle: saline with Tween-80
[15] = dose: 200.0 mg/kg/injection, schedule: Q04DX003 (ip), vehicle: saline with Tween-80
[16] = dose: 400.0 mg/kg/injection, schedule: Q04DX003 (ip), vehicle: saline with Tween-80
[17] = dose: 50.0 mg/kg/injection, schedule: Q01DX009 (ip), vehicle: saline
[18] = dose: 100.0 mg/kg/injection, schedule: Q01DX009 (ip), vehicle: saline
[19] = dose: 200.0 mg/kg/injection, schedule: Q01DX009 (ip), vehicle: saline

With `SC1(S)CCCN(Cc2ccccc2)C1` the T/C (dose: 25.0 mg/kg/injection, schedule: Q01DX005 (ip), vehicle: saline) was 105 % of control, the T/C (dose: 50.0 mg/kg/injection, schedule: Q01DX005 (ip), vehicle: saline) was 108 % of control and the T/C (dose: 100.0 mg/kg/injection, schedule: Q01DX005 (ip), vehicle: saline) was 103 % of control. For the same molecule, the T/C (dose: 200.0 mg/kg/injection, schedule: Q01DX005 (ip), vehicle: saline) was 105 % of control.
`O=C1c2ccccc2C(=O)N1c1ccccc1Br` was tested, and the T/C [1] was 100 % of control, the T/C [2] was 97 % of control and the T/C [3] was 101 % of control.
With `Sc1cc2c(c3ccccc13)Nc1ccccc1S2` the T/C [4] was 92 % of control, the T/C [5] was 97 % of control and the T/C [6] was 97 % of control.
With `CC(=O)C(Cl)C(=O)c1c(C)[nH]n(-c2ccccc2)c1=O` (stereo not given) the T/C [1] was 110 % of control and the T/C [2] was 123 % of control.
`COc1nc(NC2OC(CO)C(O)C(O)C2O)c(/C=N/O)c(=O)n1C` (stereo not given) was tested, and the T/C (dose: 60.0 mg/kg/injection, schedule: Q01DX005 (ip), vehicle: saline) was 99 % of control, the T/C (dose: 120.0 mg/kg/injection, schedule: Q01DX005 (ip), vehicle: saline) was 103 % of control and the T/C (dose: 240.0 mg/kg/injection, schedule: Q01DX005 (ip), vehicle: saline) was 99 % of control.
`CC1(C)[C@H](C(=O)O)N2C(=O)[C@@H](NC(=O)C(c3ccccc3)c3ccccc3)[C@H]2S1=O` (stereo not given in full) was tested, and the T/C [7] was 101 % of control, the T/C [1] was 99 % of control and the T/C [2] was 101 % of control.
In the case of `O=[N+]([O-])c1ccc(-c2nc(/C=N/N3CCS(=O)(=O)CC3)cs2)o1`, the T/C [8] was 99 % of control, the T/C [9] was 99 % of control and the T/C [10] was 100 % of control.
`O=C(COc1ccc(Cl)cc1Cl)NCCN1CCCCC1` was tested, and the T/C [4] was 107 % of control, the T/C [5] was 100 % of control and the T/C [6] was 100 % of control.
In the case of `CSc1nc(SC)c2cn(Cc3ccccc3)nc2n1`, the T/C [11] was 105 % of control, the T/C [12] was 108 % of control and the T/C [13] was 102 % of control.
For `C/C(=C\c1cc2cc(C(=N)N)ccc2o1)c1cc2cc(C(=N)N)ccc2o1`, the T/C (dose: 400.0 mg/kg/injection, schedule: Q04DX002 (ip), vehicle: saline) was 159 % of control.
In the case of `O=C(c1ccc(Cl)cc1)n1c(Cl)c(/C=N\Nc2ccccc2[N+](=O)[O-])c2ccccc21`, the T/C [14] was 93 % of control, the T/C [15] was 90 % of control and the T/C [16] was 92 % of control.
For `N=C(N)c1ccc(N=Nc2cc(N=Nc3ccccc3)ccc2O)cc1`, the T/C [7] was 109 % of control, the T/C [1] was 113 % of control and the T/C [2] was 115 % of control. For the same molecule, the T/C [3] was 115 % of control.
In the case of `CCN1C(=O)C=CC1=O`, the T/C (dose: 1.56 mg/kg/injection, schedule: Q04DX003 (ip), vehicle: saline with Tween-80) was 109 % of control and 98 % of control, the T/C (dose: 3.12 mg/kg/injection, schedule: Q04DX003 (ip), vehicle: saline with Tween-80) was 99 % of control and 96 % of control and the T/C (dose: 6.25 mg/kg/injection, schedule: Q04DX003 (ip), vehicle: saline with Tween-80) was 99 % of control and 95 % of control.
`C[As](C)SCCO` was tested, and the T/C (dose: 12.5 mg/kg/injection, schedule: Q01DX005 (ip), vehicle: saline with Tween-80) was 110 % of control, the T/C (dose: 25.0 mg/kg/injection, schedule: Q01DX005 (ip), vehicle: saline with Tween-80) was 115 % of control and the T/C [11] was 117 % of control. For the same molecule, the T/C (dose: 50.0 mg/kg/injection, schedule: Q04DX002 (ip), vehicle: saline with Tween-80) was 109 % of control.
With `COc1cccc2c(=O)cc(-c3ccccc3)sc12` the T/C (dose: 60.0 mg/kg/injection, schedule: Q01DX005 (ip), vehicle: Klucel (hydroxypropylcellulose) (HPC)) was 98 % of control, the T/C (dose: 120.0 mg/kg/injection, schedule: Q01DX005 (ip), vehicle: Klucel (hydroxypropylcellulose) (HPC)) was 97 % of control and the T/C (dose: 240.0 mg/kg/injection, schedule: Q01DX005 (ip), vehicle: Klucel (hydroxypropylcellulose) (HPC)) was 90 % of control.
In the case of `CC(C)=CCC/C(C)=C/CC/C(C)=C/CC/C(C)=C/C=C/C=C(\C)CC/C=C(\C)CC/C=C(\C)CCC=C(C)C`, the T/C (dose: 17.5 mg/kg/injection, schedule: Q01DX005 (ip), vehicle: saline) was 101 % of control, the T/C (dose: 35.0 mg/kg/injection, schedule: Q01DX005 (ip), vehicle: saline) was 100 % of control and the T/C (dose: 70.0 mg/kg/injection, schedule: Q01DX005 (ip), vehicle: saline) was 95 % of control. The T/C (dose: 140.0 mg/kg/injection, schedule: Q01DX005 (ip), vehicle: saline) was 104 % of control.
In the case of `CCCCOC(=O)NC(=O)c1cc2cc(Br)cc(Br)c2oc1=O`, the T/C (dose: 60.0 mg/kg/injection, schedule: Q01DX005 (ip), vehicle: saline with Tween-80) was 94 % of control, the T/C (dose: 120.0 mg/kg/injection, schedule: Q01DX005 (ip), vehicle: saline with Tween-80) was 101 % of control and the T/C (dose: 240.0 mg/kg/injection, schedule: Q01DX005 (ip), vehicle: saline with Tween-80) was 92 % of control.
For `CC(C)(C#N)NCCNC(C)(C)C#N`, the T/C (dose: 6.25 mg/kg/injection, schedule: Q01DX001 (ip), vehicle: saline) was 108 % of control and the T/C (dose: 12.5 mg/kg/injection, schedule: Q01DX001 (ip), vehicle: saline) was 99 % of control.
In the case of `CNCCC1CCCCC1`, the T/C [1] was 110 % of control.
With `O=C1c2cc(Cl)ccc2-c2c(Cl)cc(Cl)cc21` the T/C (dose: 12.5 mg/kg/injection, schedule: Q01DX009 (ip), vehicle: saline with Tween-80) was 87 % of control, the T/C [8] was 100 % of control and the T/C [9] was 100 % of control.
`CNC(=O)Oc1c(C)[nH]ccc1=O` was tested, and the T/C (dose: 400.0 mg/kg/injection, schedule: Q01DX009 (ip), vehicle: saline) was 107 % of control.
For `Cc1ccc(S(=O)(=O)NC(=O)NC(=S)c2ccco2)cc1`, the T/C (dose: 100.0 mg/kg/injection, schedule: Q01DX001 (ip), vehicle: saline with Tween-80) was 101 % of control, the T/C (dose: 200.0 mg/kg/injection, schedule: Q01DX001 (ip), vehicle: saline with Tween-80) was 97 % of control and the T/C (dose: 400.0 mg/kg/injection, schedule: Q01DX001 (ip), vehicle: saline with Tween-80) was 102 % of control.
`NCC(=O)NC(CC(=O)O)C(=O)O` (stereo not given) (H-Gly-[ξD]-OH) was tested, and the T/C [14] was 100 % of control, the T/C [15] was 93 % of control and the T/C [16] was 94 % of control.
For `CCC[N+]1([O-])CCOCC1`, the T/C [17] was 102 % of control, the T/C [18] was 100 % of control and the T/C [19] was 94 % of control.
In the case of `O=S(=O)(Nc1nccs1)c1ccc(NCc2c3ccccc3nc3cc(Cl)ccc23)cc1`, the T/C [11] was 88 % of control, the T/C [12] was 88 % of control and the T/C [13] was 97 % of control.
For `COCCCN(Cc1cc(OC)c(OC)c(OC)c1)C(=S)Nc1cccc(Cl)c1`, the T/C [17] was 92 % of control, the T/C [18] was 90 % of control and the T/C [19] was 94 % of control.
In the case of `Nc1ccc2c(c1)C(=O)CCC2`, the T/C [9] was 103 % of control, the T/C [10] was 99 % of control and the T/C (dose: 200.0 mg/kg/injection, schedule: Q01DX009 (ip), vehicle: saline with Tween-80) was 100 % of control.
For `ClC1CC[N-]CC1.ClC1CC[N-]CC1.[Cl][Pt+2]([Cl])([Cl])[Cl]`, the T/C (dose: 1.56 mg/kg/injection, schedule: Q01DX009 (ip), vehicle: saline) was 100 % of control, the T/C (dose: 3.13 mg/kg/injection, schedule: Q01DX009 (ip), vehicle: saline) was 108 % of control and the T/C (dose: 6.25 mg/kg/injection, schedule: Q01DX009 (ip), vehicle: Klucel (hydroxypropylcellulose) (HPC)) was 166 % of control. For the same molecule, the T/C (dose: 12.5 mg/kg/injection, schedule: Q01DX009 (ip), vehicle: Klucel (hydroxypropylcellulose) (HPC)) was 192 % of control, the T/C (dose: 12.5 mg/kg/injection, schedule: Q01DX009 (ip), vehicle: saline) was 153 % of control and the T/C (dose: 25.0 mg/kg/injection, schedule: Q01DX009 (ip), vehicle: Klucel (hydroxypropylcellulose) (HPC)) was 245 % of control. The T/C (dose: 25.0 mg/kg/injection, schedule: Q01DX009 (ip), vehicle: saline) was 172 % of control and the T/C [4] was 113 % of control.
For `CN(C)C(OCCCC(=O)O)C(Cl)(Cl)Cl` (stereo not given), the T/C [4] was 113 % of control, the T/C [5] was 96 % of control and the T/C [6] was 109 % of control.
For `O=C1CCC(=O)N1CO`, the T/C (dose: 37.5 mg/kg/injection, schedule: Q01DX009 (ip), vehicle: saline with Tween-80) was 107 % of control and the T/C (dose: 75.0 mg/kg/injection, schedule: Q01DX009 (ip), vehicle: saline with Tween-80) was 120 % of control.
